± gives the standard deviation of the averaged measurements.
System: HL-60
Assay: cell viability (% survival relative to DMSO control); higher = less cytotoxic
Conditions: 72 h
How it was run: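 For each screen, HL-60 cells in RPMI 1640 with 10% FBS carried either DMSO or 100 nM of one of three metabolic inhibitors while the full library was applied at five tenfold concentrations, 1–10,000 nM, in duplicate. Plates were 384-well and were kept 72 h at 37 °C, 5% CO2. Viability, measured by CellTiter-Glo, was normalised to wells with DMSO and with 10 μM proteasome inhibitor. Where area under the curve appears, it was fitted by four-parameter log-logistic models in drc and PharmacoGx.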

[1] = 0.001 µM, co-treatment: AZD3965 100 nM
[2] = 0.001 µM, co-treatment: DMSO vehicle
[3] = 0.001 µM, co-treatment: GSK2194069 100 nM
[4] = 0.001 µM, co-treatment: pictilisib 100 nM
[5] = 0.01 µM, co-treatment: AZD3965 100 nM
[6] = 0.01 µM, co-treatment: DMSO vehicle
[7] = 0.01 µM, co-treatment: GSK2194069 100 nM
[8] = 0.01 µM, co-treatment: pictilisib 100 nM
[9] = 0.1 µM, co-treatment: AZD3965 100 nM
[10] = 0.1 µM, co-treatment: DMSO vehicle
[11] = 0.1 µM, co-treatment: GSK2194069 100 nM
[12] = 0.1 µM, co-treatment: pictilisib 100 nM
[13] = 1 µM, co-treatment: AZD3965 100 nM
[14] = 1 µM, co-treatment: DMSO vehicle
[15] = 1 µM, co-treatment: GSK2194069 100 nM
[16] = 1 µM, co-treatment: pictilisib 100 nM
[17] = 10 µM, co-treatment: AZD3965 100 nM
[18] = 10 µM, co-treatment: DMSO vehicle
[19] = 10 µM, co-treatment: GSK2194069 100 nM
[20] = 10 µM, co-treatment: pictilisib 100 nM

| SMILES | cell viability [1] [%] | cell viability [2] [%] | cell viability [3] [%] | cell viability [4] [%] | cell viability [5] [%] | cell viability [6] [%] | cell viability [7] [%] | cell viability [8] [%] | cell viability [9] [%] | cell viability [10] [%] | cell viability [11] [%] | cell viability [12] [%] | cell viability [13] [%] | cell viability [14] [%] | cell viability [15] [%] | cell viability [16] [%] | cell viability [17] [%] | cell viability [18] [%] | cell viability [19] [%] | cell viability [20] [%] |
| --- | --- | --- | --- | --- | --- | --- | --- | --- | --- | --- | --- | --- | --- | --- | --- | --- | --- | --- | --- | --- |
| CCOC(=O)[C@H]1O[C@@H]1C(=O)N[C@@H](CC(C)C)C(=O)NCCC(C)C [Aloxistatin] | 100 ± 1.1 | 102 ± 6 | 102 ± 11 | 106 ± 11 | 101 ± 4.6 | 104 ± 7.9 | 106 ± 15 | 115 ± 19 | 98 ± 5.8 | 100 ± 1.2 | 95.8 ± 2.5 | 100 ± 6.3 | 97.6 ± 3.7 | 100 ± 1.4 | 92.5 ± 11 | 106 ± 5.1 | 103 ± 6.2 | 99.7 ± 2.7 | 115 ± 23 | 99.7 ± 3.2 |
| N[C@](CCCCB(O)O)(CCN1CCCCC1)C(=O)O [Arginase inhibitor 1] | 94.6 ± 14 | 102.5 ± 0.45 | 91.7 ± 12 | 87.5 ± 14 | 98.6 ± 5.9 | 97.3 ± 2 | 100 ± 5.7 | 94.4 ± 4.9 | 99.9 ± 2.7 | 102 ± 3.7 | 109.7 ± 0.86 | 98.3 ± 3 | 99.151 ± 0.014 | 98.12 ± 0.95 | 90.6 ± 12 | 90.8 ± 6.9 | 102.3 ± 0.42 | 103 ± 7.5 | 101 ± 6.6 | 99.5 ± 2.6 |
| Cc1noc2c1-c1ccccc1C(c1ccc(Cl)cc1)=N[C@H]2CC(N)=O [CPI-0610] | 101 ± 2.2 | 96.3 ± 1.7 | 101 ± 1.7 | 104 ± 2.6 | 101 ± 1.5 | 95.3 ± 1.7 | 100.1 ± 0.39 | 94.4 ± 1.4 | 92 ± 14 | 98.8 ± 2.3 | 97.5 ± 6.9 | 75.5 ± 14 | 62.6 ± 7.4 | 74.8 ± 9.4 | 71.4 ± 2.1 | 45.8 ± 1.4 | 16.8 ± 1.1 | 23.7 ± 2.8 | 25.3 ± 6.1 | 8.68 ± 2.2 |
| Nc1ccn([C@@H]2O[C@H](CO)[C@@H](O)[C@@H]2O)c(=O)n1 [Cytarabine] | 82 ± 32 | 80.7 ± 36 | 99.2 ± 2.5 | 103 ± 14 | 96.1 ± 7.4 | 102 ± 1.5 | 97.4 ± 1.3 | 101 ± 5.1 | 99.4 ± 4.1 | 101 ± 2.5 | 95.8 ± 1.5 | 84.52 ± 0.57 | 46.7 ± 9.3 | 59.5 ± 7 | 60.6 ± 3.9 | 30.9 ± 0.58 | 6.3 ± 2.2 | 6.92 ± 1.2 | 7.86 ± 0.42 | 6.83 ± 3 |
| CCOc1ccc(Cc2cc([C@@H]3O[C@H](CO)[C@@H](O)[C@H](O)[C@H]3O)ccc2Cl)cc1 [Dapagliflozin] | 100.2 ± 0.34 | 105 ± 2.9 | 100.95 ± 0.06 | 99.1 ± 5.3 | 97.7 ± 4.2 | 101.3 ± 0.77 | 102 ± 1.1 | 103 ± 1.6 | 99.5 ± 0.33 | 100 ± 3.5 | 100 ± 4.8 | 101.6 ± 0.16 | 103.3 ± 0.55 | 99.6 ± 1.8 | 96 ± 1.6 | 104 ± 5.3 | 104 ± 2 | 103 ± 3.6 | 102 ± 4.6 | 100 ± 6.2 |
| CCN(CC)CCN(Cc1ccc(-c2ccc(C(F)(F)F)cc2)cc1)C(=O)Cn1c(SCc2ccc(F)cc2)nc(=O)c2c1CCC2 [Darapladib] | 96.2 ± 14 | 103.1 ± 0.25 | 98.7 ± 14 | 85.9 ± 27 | 100 ± 3.4 | 99.55 ± 0.55 | 97.8 ± 1.3 | 97.2 ± 7 | 104 ± 1.6 | 101 ± 6.2 | 99.8 ± 1.8 | 102 ± 4.5 | 93.7 ± 2.3 | 96.27 ± 0.22 | 84.4 ± 10 | 97.3 ± 7.4 | -1.351 ± 0.0054 | -2.41 ± 0.42 | -2.4 ± 0.029 | -2.26 ± 0.088 |

From the supplement of paper PMC8671470
